Data on one substance can be found in PMC7029560, “Functional characterization of acyl-CoA binding protein in Neospora caninum” (Parasites & Vectors, 2020).

In this experiment the target is T1, NcACBP (rNcACBP-GST) (Neospora caninum, UniProt F0VR91).
T1 construct: gene NCLIV_066640
T1 sequence (F0VR91 1-95): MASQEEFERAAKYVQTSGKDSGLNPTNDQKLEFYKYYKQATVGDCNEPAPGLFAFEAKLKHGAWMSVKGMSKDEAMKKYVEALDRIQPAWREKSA
As to the kind of experiment: fluorescence binding assay (SpectraMax M5, […] nm). As to conditions: 1 uM GST-fusion protein, 0-0.3 uM ligand, PBS, room temperature, 5 min; labelled compound.

One may read the Kd as the equilibrium constant for the complex coming apart. Higher therefore signals weaker binding. Take NBD-C16:0-CoA: the Kd came out at 11.7 nM.
